Each structure is given as a SMILES string.

The values that follow come from US20180071280A1, “MODULATORS OF CELL DEATH PROCESSES” (URIFER LTD., priority 2015, published 2018).

Format in all cases: cell-based, human
Test [1] concerns malignant cells (CC and MDA cells). The test is described as follows: Cellular ATP level (HPLC) in malignant cells. The conditions noted are these: SW620, co-treatment with 0260. As to the method: Quantification of intracellular ATP was carried out using HPLC as previously described.
Cells were suspended in 400 μl cold 0.4M perchloric acid solution, incubated on ice for 15 min, centrifuged at 12,000×g, neutralized with 4M K2CO3 to pH 7.5, incubated for 15 min on ice and concentrated (10,000×g). Chromatographic analyses were performed using Hitachi Elite LaChrom system at 30° C. applying supernatants to SUPELCOSIL™ LC-18-S HPLC Column (5 μm particle size, L×I.D. 25 cm×2.1 mm), flow rate 0.2 mL/min under isocratic elution conditions (50 mM potassium phosphate, 100 mM triethylamine, pH 6.5 (adjusted with phosphoric acid)):Acetonitrile (98.5:1.5)). Each analysis cycle was set to 30 min, chromatographic flow was monitored at 260 nm and integrated using EZChrom Elite Software.

A further test has as its system SW620 CC cells. The test is described as follows: MultiTox-Fluor cytotoxicity assay in SW620 CC cells. As for the experimental part:
Cell lines (HCT116, ht29, Rko, Hep3B, SW48, SW620, MDA-MB-231, PANC-1, su.86.86, Hfb) were obtained from the American Type Culture Collection (ATCC). Cell type authentication was carried out by microscope and DNA profiles using short tandem repeat analysis. Cells were grown in Minimum Essential Medium (MEM) containing 10% heat-inactivated Fetal Bovine Serum (FBS) or in Dulbecco's Modified Eagle's Medium (DMEM) containing 10% FBS, where specified, at 37° C. with 5% CO2. In general, the in-vitro experiments were carried out with 2. μM 0260 added into the growth medium. Dose response experiments included increasing 0260 concentrations. Cell death levels were determined using the MultiTox-Fluor Multiplex Cytotoxicity Assay (G9201, Promega, USA). In brief, 10,000 cells were seeded in black bottom 96 wells plate and were allowed to attach to the plate bottom for 16 h before the administration of various 0260 concentration in each well. Cell death levels were determined according to the manufacturer's protocol.
Cells death level was determined using the MultiTox-Fluor Multiplex Cytotoxicity Assay (G9201, Promega, USA) according to the manufacturer's protocol.

For another test, the system named is PARP-1. Kind of test: PARP-1 poly-ADP-ribosylation activity in CC cells (WB). The note with it: co-treatment with 0260. As to the method: (§1) WB analyses were carried out as previously described before. In brief, cells were lysed in RIPA buffer mixed with protease inhibitors and separated on SDS-PAGE gel, transferred to PVDF membrane treated with 5% skim milk to exclude non-specific background and incubated with a primary antibody over-night. The membrane was incubated for 1 h with a secondary antibody conjugated to Horseradish Peroxidase (HRP). The protein-antibody complex was visualized using the SuperSignal West Pico Chemiluminescent Substrate (Thermo scientific, USA).

Another test deals with CC cells. The test is described as follows: Autophagy in CC cells (TEM, LC3 immuno-staining, WB). The conditions noted are these: co-treatment with 0260. As for the experimental part:
as §1
Cells were fixed with 4% paraformaldehyde (30 min) and incubated with Permeabilization Solution containing 0.1% Triton X-100 (Sigma-Aldrich, Israel) in PBS at room temperature for 1 h. Nonspecific binding was blocked with PBS containing 10% fetal bovine serum for 1 h at room temperature. Cells were incubated with specific antibodies diluted 1:100 overnight at 4° C. Cells were washed (5 min) in PBS containing 0.2% Tween-20 (Sigma-Aldrich, Israel) to remove non-specific binding. Bound primary antibodies were detected by Alexa Fluor® 488 goat anti-mouse IgG antibody or Alexa Fluor® 594 goat anti-rabbit IgG antibody (Molecular Probes, Invitrogen, U.K.). Nuclei were visualized by incubation with Hoechst 33342 solution for 10 min (1:500). Nonspecific staining, as determined by binding to the secondary antibody only, was negligible. The immunostained slides were examined under the fluorescence microscope AxioimagerZ1 (Zeiss, Germany) or confocal fluorescence microscope (Olympus-FV1000).
Cells were grown in MEM or DMEM, washed twice with PBS and fixed for 5 minutes in Karnovsky fixative (2.5% glutaraldehyde, 2.5% paraformaldehyde in cacodylate buffer pH 7.4) on the tissue culture plate. Cells were then harvested, and transferred to 1.5 ml tube for further 1 h fixation at room temperature. The cells were then stored O.N at 4C° after which the samples were washed in 0.1 M cacodylate buffer and post-fixed with 1% OsO4 in 0.1 M sodium cacodylate buffer (Sigma-Aldrich, Israel) for 1 h. […]

As for `Cn1cnc(N)c2ncnc1-2` [3-MA, 3-Methyladenine, reference compound], the “ATP level in 0260 treated cells with autophagy inhibitor” value in test [1] is on record as “almost completely restored the ATP level”. Besides, the “death levels of 0260 treated cells with autophagy inhibitor” value in the test on SW620 CC cells (SW620, co-treatment with 0260) is reported as “reduced death levels”.

With `NC(=O)c1cccc(N)c1` [3AB, 3-Aminobenzamide, reference compound], the “0260-induced poly-ADP-ribosylation activity with PARP-1 inhibitor” value with PARP-1 is given as “abolished”. The “induced autophagy with PARP-1 inhibition (LC3II to LC3 I ratio)” value with CC cells was “decreased LC3II to LC3 I ratio”. The “decrease of 0260-induced death” value in the test on SW620 CC cells (CC cells, co-treatment with 0260) is on record as 50%.
